Read-outs that look alike come from different tables or passages of the source.
Key:
[1] = system: brain activity in awake rats; experiment: Brain activation in rats measured by fMRI-BOLD (Example 11); assay type: in vivo, rat; details: single IV administration, vs peripherally restricted sGC stimulator
Excerpt: Objective. Functional magnetic resonance imaging or functional MRI (fMRI) is a functional neuroimaging procedure using MRI technology that measures brain activity by detecting changes associated with blood flow. This technique relies on the fact that cerebral blood flow and neuronal activation are coupled. When an area of the brain is in use, blood flow to that region also increases. Awake rats were studied by fMRI to assess changes (“fingerprint”) in brain activity following a single intravenous administration of a compound of the invention
Experimental Design. 24 male Sprague-Dawley rats weighing from 275-350 g were used. Following acclimation, the animals were placed in the restrainer and positioned in the magnet. Catheters were placed in each animal to allow for remote dosing when the animals were in the magnet. Scans were acquired continuously for 5 minutes prior to administration of either a vehicle or a compound of the invention to establish a baseline for the brain activity. Following the 5-minute baseline period, either the vehicle or the compound of the invention was administered to the rat and scans were acquired continuously for 30-45 minutes.

sGC enzyme = biological target: T1, sGC enzyme (Homo sapiens, UniProt Q02108+Q02153); experiment: cGMP GloSensor cell-based assay, synergy with NO at varied DETA-NO (Example 2b); details: for EC50: HEK293 GloSensor cells, read-out: EC50 (Absolute EC50)
T1 construct: sGC enzyme activity values in HEK cells, determined by the GloSensor assay; host or cells: HEK293 cells stably expressing GloSensor 40F cGMP biosensor
T1 sequence (Q02153 1-619): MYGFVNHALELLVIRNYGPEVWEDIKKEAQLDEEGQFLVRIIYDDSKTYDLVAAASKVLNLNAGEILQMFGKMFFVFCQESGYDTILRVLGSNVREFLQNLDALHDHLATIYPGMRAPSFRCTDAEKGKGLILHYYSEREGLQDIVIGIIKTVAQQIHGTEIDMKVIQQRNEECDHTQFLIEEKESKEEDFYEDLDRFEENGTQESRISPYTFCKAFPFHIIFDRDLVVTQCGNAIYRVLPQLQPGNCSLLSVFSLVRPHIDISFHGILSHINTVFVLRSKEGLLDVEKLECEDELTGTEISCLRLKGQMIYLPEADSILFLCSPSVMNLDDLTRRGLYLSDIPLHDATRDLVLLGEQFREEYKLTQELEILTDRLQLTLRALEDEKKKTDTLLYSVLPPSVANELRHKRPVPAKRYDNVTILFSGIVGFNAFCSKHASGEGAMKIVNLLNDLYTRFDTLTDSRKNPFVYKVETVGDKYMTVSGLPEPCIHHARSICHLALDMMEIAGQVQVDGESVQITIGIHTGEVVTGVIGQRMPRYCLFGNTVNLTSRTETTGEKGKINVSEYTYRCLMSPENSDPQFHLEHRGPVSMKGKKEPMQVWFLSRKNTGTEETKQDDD
T1 sequence (Q02108 1-690): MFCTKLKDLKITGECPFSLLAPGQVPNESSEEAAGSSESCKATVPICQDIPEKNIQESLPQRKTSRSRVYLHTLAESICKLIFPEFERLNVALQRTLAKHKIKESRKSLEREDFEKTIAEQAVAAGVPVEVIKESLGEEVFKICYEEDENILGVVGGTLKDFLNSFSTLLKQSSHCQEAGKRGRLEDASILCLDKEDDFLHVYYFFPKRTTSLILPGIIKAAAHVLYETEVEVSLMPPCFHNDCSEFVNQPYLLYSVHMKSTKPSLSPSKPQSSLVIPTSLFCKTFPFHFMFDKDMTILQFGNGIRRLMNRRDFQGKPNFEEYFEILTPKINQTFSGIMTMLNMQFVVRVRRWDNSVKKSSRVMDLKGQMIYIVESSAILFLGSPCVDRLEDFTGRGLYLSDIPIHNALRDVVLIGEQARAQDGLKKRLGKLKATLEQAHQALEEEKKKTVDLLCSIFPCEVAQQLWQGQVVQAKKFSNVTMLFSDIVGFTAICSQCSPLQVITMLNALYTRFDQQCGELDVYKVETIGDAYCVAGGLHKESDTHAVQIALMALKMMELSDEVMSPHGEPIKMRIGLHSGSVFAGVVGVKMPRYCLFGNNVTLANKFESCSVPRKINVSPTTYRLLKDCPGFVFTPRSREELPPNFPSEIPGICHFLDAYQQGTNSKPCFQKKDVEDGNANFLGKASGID
Procedure: HEK293 cells expressing GloSensor™ 40F cGMP (Part No: CS182801, Promega) were used to evaluate the synergy of the test compounds with NO. Multiple assays where run in which the concentrations of test compound also well as the concentration of Diethylenetriamine NONOate (DETA-NONOate) were varied to determine the synergy of the test compound with NO. Test compounds and Diethylenetriamine NONOate (DETA-NONOate or DETA-NO) were diluted to 3 mM (20×) in serum-free CO2 independent medium and serially diluted at 4× dilutions to create 5× dose curve from which 10 ul was added to the wells (x μM concentration for test compound solution and y μM concentration for DETA-NO solution; wherein x is one of the following final concentrations: 30000 nM, 7500 nM, 1875 nM, 468.8 nM, 117.2 nM, 29.29 nM, 7.320 nM, 1.830 nM, 0.460 nM, 0.114 nM, and 0.029 nM and y is one of the following final concentrations: 30 μM, 10 μM, 3.33 μM 1.11 μM, and 0 μM).
Following the analysis as described above, Table 2b summarizes results obtained for Compound I-1 with the various DETA-NO amount in this assay.

Q: How did the “brain activation (fMRI-BOLD)” value [1] turn out when `Fc1ccccc1Cc1nc(-c2nc(C(F)(F)F)n[nH]2)cn2ccnc12` [Compound I-1, 8-(2-fluorobenzyl)-6-(3-(trifluoromethyl)-1H-1,2,4-triazol-5-yl)imidazo[1,2-a]pyrazine] was run?
A: a greater region of the brain is activated

Q: And the EC50 (sGC enzyme; [DETA-NO] 0 uM)?
A: 100 to 1000 nM

Q: And the EC50 (sGC enzyme; [DETA-NO] 1.11 uM)?
A: 100 to 1000 nM

Q: What about the EC50 (sGC enzyme; [DETA-NO] 3.33 uM) of the same compound?
A: 100 to 1000 nM

Q: What about the EC50 (sGC enzyme; [DETA-NO] 10 uM) of the same compound?
A: 100 to 1000 nM

Q: And the EC50 (sGC enzyme; [DETA-NO] 30 uM)?
A: ≤ 100 nM

Q: What about the “synergy with NO to stimulate sGC” value (sGC enzyme; varied DETA-NO concentrations) of the same compound?
A: synergizes with NO

From patent US11731977B2, “SGC stimulators” (Cyclerion Therapeutics, Inc., priority 2016, dated 2023)
